Data from patent US20250084087A1, “BICYCLIC HETEROCYCLES AS MRGPRX2 ANTAGONISTS” (Incyte Corporation, priority 2023, published 2025).

Experiments:
Type in all cases: cell-based
MRGPRX2 [1] = biological target: T1, MRGPRX2 (Homo sapiens, UniProt Q96LB1); assay: MRGPRX2 FLIPR calcium mobilization assay; set-up: host or cells: CHO-K1; details: CHO-K1 cells stably expressing human MRGPRX2; Ca2+ release; agonist Cortistatin-14 at EC80
T1 sequence (Q96LB1 1-330): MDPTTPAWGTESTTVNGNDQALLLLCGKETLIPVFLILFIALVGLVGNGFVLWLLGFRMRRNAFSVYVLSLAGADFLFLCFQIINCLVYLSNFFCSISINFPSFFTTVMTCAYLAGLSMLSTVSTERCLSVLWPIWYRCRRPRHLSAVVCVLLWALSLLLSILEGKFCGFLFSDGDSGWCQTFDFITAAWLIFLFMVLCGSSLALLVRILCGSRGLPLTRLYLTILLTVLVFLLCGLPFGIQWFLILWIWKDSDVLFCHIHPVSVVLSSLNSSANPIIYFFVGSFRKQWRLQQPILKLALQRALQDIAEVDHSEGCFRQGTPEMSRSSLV
Description: Example A. MRGPRX2 FLIPR Calcium Mobilization Assay
Chinese hamster ovary (CHO-K1) cells stably expressing human MRGPRX2 were purchased from Genescript (Piscataway, NJ). The cells were maintained in culture medium (Ham's F-12K) containing 10% (v/v) FBS, 200 μg/mL Zeocin, 100 units/mL penicillin G and 100 μg/mL streptomycin (Life Technologies, Carlsbad, CA). For the assay, the cells were harvested and resuspended with culture medium without Zeocin before plating at 8000 cells per well in 20 μL in 384-well black clear bottom cell culture plates (VWR, Radnor, PA). After 24 hour culture at 37° C. and 5% CO2, the cells were loaded with 20 μL/well of calcium dye (FLIPR Calcium 6 Assay Kit, Molecular Devices, San Jose, CA) diluted in loading buffer (1× Hank's Balanced Salt Solution (HBSS), 5 mM probenecid, 20 mM 4-(2-hydroxyethyl)-1-piperazineethanesulfonic acid (HEPES), pH 7.4, VWR, Radnor, PA) followed with 45 min. incubation at 37° C. and 40 min. at r.t. in the dark. Cells were then treated with the addition of 10 uL/well test compounds with a range of increasing concentrations diluted in the assay buffer (1×HBSS, 20 mM HEPES, pH 7.4, VWR, Radnor, PA) with FLIPR Penta (Molecular Devices. San Jose, CA) and incubated for 30 min. at r.t. Ca^2+ release was measured with FLIPR Penta with 10 seconds basal fluorescence measurement, then 12.5 μL of 5× agonist Cortistatin-14 (Tocris, Minneapolis, MN) at final concentration corresponding to the EC80 were added followed with continued fluorescence signal monitoring for an additional 110 seconds. The base line adjusted (median of first 10s base line) max value of the Relative Fluorescence Unit (RFU) was plotted against compound concentrations. Wells with no compound were served as the positive controls, and wells with high concentration of reference antagonist were used as negative controls. IC50 curves were globally fitted with 3- or 4-parameter Hill equation in a Genedata Screener (Genedata Basel, Switzerland).

MRGPRX2 [2] = biological target: T1, MRGPRX2; assay: MRGPRX2 β-Arrestin recruitment assay (PathHunter); set-up: host or cells: CHO-K1 (PathHunter); details: PathHunter CHO-K1 MRGPRX2 β-Arrestin cell line; agonist Cortistatin 14 0.25 μM
Outline: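 CHO-K1 PathHunter cells co-expressing ProLink-tagged MRGPRX2 and enzyme-acceptor-tagged β-arrestin were preincubated with compound 1 h at 37° C., then stimulated with cortistatin-14 (0.25 μM final) for 90 min. Enzyme-complementation luminescence read after 1 h detection; data normalized to DMSO and reference antagonist, IC50 from 3- or 4-parameter Hill fit.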

MRGPRX2 [3] = biological target: T1, MRGPRX2; assay: MRGPRX2 IP1 HTRF assay; set-up: host or cells: CHO-K1; details: CHO-K1 cells stably expressing human MRGPRX2; IP1 accumulation; agonist Cortistatin 14 1 μM
Outline: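 CHO-K1 cells stably expressing human MRGPRX2, preincubated with compound 1 h at 37 °C, then stimulated with 1 μM Cortistatin 14 for 1 h. IP1 measured by HTRF against standard curve, normalized to DMSO and reference antagonist controls; IC50 from 3- or 4-parameter Hill fit.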

Question: For `NS(=O)(=O)N1CC[C@](CNc2cc(C(F)(F)F)nc3cc(C(F)(F)F)nn23)(c2ccccc2)C1` (stereo in doubt) [Example 3, 3-(((2,5-Bis(trifluoromethyl)pyrazolo[1,5-a]pyrimidin-7-yl)amino)methyl)-3-phenylpyrrolidine-1-sulfonamide], which IC50 (MRGPRX2 [1]) is on record?
Answer: 0.1 to 100 nM

Question: And the IC50 (MRGPRX2 [2])?
Answer: 100 to 1000 nM

Question: And the IC50 (MRGPRX2 [3])?
Answer: 0.1 to 100 nM

Question: Which results are given for `NC(=O)N1CCC(CNc2cc(C(F)(F)F)nc3cc(C(F)(F)F)nn23)(c2ccccc2)C1` (stereo not shown) [Example 4, 3-(((2,5-Bis(trifluoromethyl)pyrazolo[1,5-a]pyrimidin-7-yl)amino)methyl)-3-phenylpyrrolidine-1-carboxamide]?
Answer: IC50 (MRGPRX2 [1]): 0.1 to 100 nM; IC50 (MRGPRX2 [2]): 0.1 to 100 nM; IC50 (MRGPRX2 [3]): 0.1 to 100 nM

Question: Which IC50 (MRGPRX2 [1]) does the source give for `NS(=O)(=O)N1CCC(CNc2cc(C(F)(F)F)nc3cc(C(F)(F)F)nn23)(c2ccccc2)CC1` [Example 6, 4-(((2,5-Bis(trifluoromethyl)pyrazolo[1,5-a]pyrimidin-7-yl)amino)methyl)-4-phenylpiperidine-1-sulfonamide] here?
Answer: 0.1 to 100 nM

Question: And the IC50 (MRGPRX2 [2])?
Answer: 0.1 to 100 nM

Question: What about the IC50 (MRGPRX2 [3]) of the same compound?
Answer: 0.1 to 100 nM

Question: What does the source list for `Cc1cc2nc(C(F)(F)F)cc(NCC3(c4ccccc4)CCNCC3)n2n1` [Example 8, 2-Methyl-N-((4-phenylpiperidin-4-yl)methyl)-5-(trifluoromethyl)pyrazolo[1,5-a]pyrimidin-7-amine]?
Answer: IC50 (MRGPRX2 [1]): 0.1 to 100 nM; IC50 (MRGPRX2 [2]): 0.1 to 100 nM; IC50 (MRGPRX2 [3]): 100 to 1000 nM

Question: With `NS(=O)(=O)N1CC(CNc2cc(C(F)(F)F)nc3cc(C(F)(F)F)nn23)(n2cc(F)cn2)C1` [Example 9, 3-(((2,5-Bis(trifluoromethyl)pyrazolo[1,5-a]pyrimidin-7-yl)amino)methyl)-3-(4-fluoro-1H-pyrazol-1-yl)azetidine-1-sulfonamide] as the compound, how does the IC50 (MRGPRX2 [1]) read?
Answer: 0.1 to 100 nM

Question: What about the IC50 (MRGPRX2 [2]) of the same compound?
Answer: 0.1 to 100 nM

Question: What about the IC50 (MRGPRX2 [3]) of the same compound?
Answer: 0.1 to 100 nM

Question: With `CNC(=O)N1CCC(CNc2cc(C)nc3nc(C(F)(F)F)nn23)(c2ccccc2)CC1` [Example 18, N-Methyl-4-(((5-methyl-2-(trifluoromethyl)-[1,2,4]triazolo[1,5-a]pyrimidin-7-yl)amino)methyl)-4-phenylpiperidine-1-carboxamide] as the compound, how does the IC50 (MRGPRX2 [1]) read?
Answer: 0.1 to 100 nM

Question: And the IC50 (MRGPRX2 [2])?
Answer: 0.1 to 100 nM

Question: What about the IC50 (MRGPRX2 [3]) of the same compound?
Answer: 0.1 to 100 nM

Question: Which results are given for `CC(=O)N1CCC(CNc2cccc3nc(C(F)(F)F)cn23)(c2ccccc2)CC1` [Example 20, 1-(4-Phenyl-4-(((2-(trifluoromethyl)imidazo[1,2-a]pyridin-5-yl)amino)methyl)piperidin-1-yl)ethan-1-one]?
Answer: IC50 (MRGPRX2 [1]): 0.1 to 100 nM; IC50 (MRGPRX2 [2]): 0.1 to 100 nM; IC50 (MRGPRX2 [3]): 0.1 to 100 nM

Question: With `CNC(=O)N1CCC(CNc2cccc3nc(C(F)(F)F)cn23)(c2ccccc2)CC1` [Example 21, N-Methyl-4-phenyl-4-(((2-(trifluoromethyl)imidazo[1,2-a]pyridin-5-yl)amino)methyl)piperidine-1-carboxamide] as the compound, how does the IC50 (MRGPRX2 [1]) read?
Answer: 0.1 to 100 nM

Question: And the IC50 (MRGPRX2 [2])?
Answer: 0.1 to 100 nM

Question: What about the IC50 (MRGPRX2 [3]) of the same compound?
Answer: 0.1 to 100 nM

Question: For `CNC(=O)N1CCC(CNc2cc(Cl)cc3nc(C(F)(F)F)cn23)(c2ccccc2)CC1` [Example 27, 4-(((7-Chloro-2-(trifluoromethyl)imidazo[1,2-a]pyridin-5-yl)amino)methyl)-N-methyl-4-phenylpiperidine-1-carboxamide], which IC50 (MRGPRX2 [1]) is on record?
Answer: 0.1 to 100 nM

Question: What about the IC50 (MRGPRX2 [3]) of the same compound?
Answer: 0.1 to 100 nM

Question: `CNC(=O)N1CCC(CNc2cc(C)cc3nc(C(F)(F)F)cn23)(c2ccccc2)CC1` [Example 28, N-Methyl-4-(((7-methyl-2-(trifluoromethyl)imidazo[1,2-a]pyridin-5-yl)amino)methyl)-4-phenylpiperidine-1-carboxamide] was tested. Which IC50 (MRGPRX2 [1]) did it give?
Answer: 0.1 to 100 nM

Question: What about the IC50 (MRGPRX2 [3]) of the same compound?
Answer: 0.1 to 100 nM

Question: For `CNC(=O)N1CCC(CNc2cccc3nc(C(C)C)cn23)(c2ccccc2)CC1` [Example 29, 4-(((2-Isopropylimidazo[1,2-a]pyridin-5-yl)amino)methyl)-N-methyl-4-phenylpiperidine-1-carboxamide], which IC50 (MRGPRX2 [1]) is on record?
Answer: 0.1 to 100 nM

Question: And the IC50 (MRGPRX2 [3])?
Answer: 100 to 1000 nM

Question: `NS(=O)(=O)N1CC(CNc2cc(C(F)(F)F)nc3cc(C(F)(F)F)nn23)(c2ccc(F)cc2)C1` [Example 30, 3-(((2,5-Bis(trifluoromethyl)pyrazolo[1,5-a]pyrimidin-7-yl)amino)methyl)-3-(4-fluorophenyl)azetidine-1-sulfonamide] was tested. Which IC50 (MRGPRX2 [1]) did it give?
Answer: 0.1 to 100 nM

Question: What about the IC50 (MRGPRX2 [2]) of the same compound?
Answer: 0.1 to 100 nM

Question: What about the IC50 (MRGPRX2 [3]) of the same compound?
Answer: 0.1 to 100 nM

Question: What does the source list for `NC(=O)N1CC(CNc2cc(C(F)(F)F)nc3cc(C(F)(F)F)nn23)(c2ccc(F)cc2)C1` [Example 31, 3-(((2,5-Bis(trifluoromethyl)pyrazolo[1,5-a]pyrimidin-7-yl)amino)methyl)-3-(4-fluorophenyl)azetidine-1-carboxamide]?
Answer: IC50 (MRGPRX2 [1]): 0.1 to 100 nM; IC50 (MRGPRX2 [2]): 0.1 to 100 nM; IC50 (MRGPRX2 [3]): 0.1 to 100 nM

Question: `NS(=O)(=O)N1CC(CNc2cccc3nc(C(F)(F)F)nn23)(c2ccc(F)cc2)C1` [Example 32, 3-(4-Fluorophenyl)-3-(((2-(trifluoromethyl)-[1,2,4]triazolo[1,5-a]pyridin-5-yl)amino)methyl)azetidine-1-sulfonamide] was tested. Which IC50 (MRGPRX2 [1]) did it give?
Answer: 0.1 to 100 nM

Question: And the IC50 (MRGPRX2 [2])?
Answer: 0.1 to 100 nM

Question: What about the IC50 (MRGPRX2 [3]) of the same compound?
Answer: 0.1 to 100 nM

Question: How did the IC50 (MRGPRX2 [1]) turn out when `NC(=O)N1CC(CNc2cccc3nc(C(F)(F)F)nn23)(c2ccc(F)cc2)C1` [Example 33, 3-(4-Fluorophenyl)-3-(((2-(trifluoromethyl)-[1,2,4]triazolo[1,5-a]pyridin-5-yl)amino)methyl)azetidine-1-carboxamide] was run?
Answer: 0.1 to 100 nM

Question: What about the IC50 (MRGPRX2 [2]) of the same compound?
Answer: 0.1 to 100 nM

Question: And the IC50 (MRGPRX2 [3])?
Answer: 0.1 to 100 nM

Question: For `NS(=O)(=O)N1CC(CNc2cccc3nc(C(F)(F)F)cn23)(c2ccc(F)cc2)C1` [Example 34, 3-(4-Fluorophenyl)-3-(((2-(trifluoromethyl)imidazo[1,2-a]pyridin-5-yl)amino)methyl)azetidine-1-sulfonamide], which IC50 (MRGPRX2 [1]) is on record?
Answer: 0.1 to 100 nM

Question: What about the IC50 (MRGPRX2 [3]) of the same compound?
Answer: 0.1 to 100 nM

Question: What does the source list for `NC(=O)N1CC(CNc2cccc3nc(C(F)(F)F)cn23)(c2ccc(F)cc2)C1` [Example 35, 3-(4-Fluorophenyl)-3-(((2-(trifluoromethyl)imidazo[1,2-a]pyridin-5-yl)amino)methyl)azetidine-1-carboxamide]?
Answer: IC50 (MRGPRX2 [1]): 0.1 to 100 nM; IC50 (MRGPRX2 [3]): 0.1 to 100 nM

Question: With `Fc1ccc(C2(CNc3cccc4nc(C(F)(F)F)cn34)CCC2)cc1` [Example 36, N-((1-(4-Fluorophenyl)cyclobutyl)methyl)-2-(trifluoromethyl)imidazo[1,2-a]pyridin-5-amine] as the compound, how does the IC50 (MRGPRX2 [1]) read?
Answer: 0.1 to 100 nM

Question: And the IC50 (MRGPRX2 [2])?
Answer: 0.1 to 100 nM

Question: And the IC50 (MRGPRX2 [3])?
Answer: 0.1 to 100 nM

Question: Which results are given for `FC(F)(F)c1cn2c(NCC3(c4ccncc4)CCC3)cccc2n1` [Example 37, N-((1-(Pyridin-4-yl)cyclobutyl)methyl)-2-(trifluoromethyl)imidazo[1,2-a]pyridin-5-amine]?
Answer: IC50 (MRGPRX2 [1]): 0.1 to 100 nM; IC50 (MRGPRX2 [2]): 0.1 to 100 nM; IC50 (MRGPRX2 [3]): 0.1 to 100 nM

Question: What does the source list for `FC(F)(F)c1cn2c(NCC3(c4ccc(Br)cc4)CCC3)cccc2n1` [Example 38, N-((1-(4-Bromophenyl)cyclobutyl)methyl)-2-(trifluoromethyl)imidazo[1,2-a]pyridin-5-amine]?
Answer: IC50 (MRGPRX2 [1]): 0.1 to 100 nM; IC50 (MRGPRX2 [3]): 0.1 to 100 nM

Question: What does the source list for `Cc1cc2nc(C(F)(F)F)cc(NCC3(c4ccccc4)CCOC3)n2n1` (stereo not shown) [Example 77, 2-Methyl-N-((3-phenyltetrahydrofuran-3-yl)methyl)-5-(trifluoromethyl)pyrazolo[1,5-a]pyrimidin-7-amine]?
Answer: IC50 (MRGPRX2 [1]): 0.1 to 100 nM; IC50 (MRGPRX2 [3]): 100 to 1000 nM

Question: How did the IC50 (MRGPRX2 [1]) turn out when `N#Cc1cc2nc(Cl)cc(NCC3(c4ccccc4)CCNCC3)n2n1` [Example 104, 5-Chloro-7-(((4-phenylpiperidin-4-yl)methyl)amino)pyrazolo[1,5-a]pyrimidine-2-carbonitrile] was run?
Answer: 100 to 1000 nM

Question: And the IC50 (MRGPRX2 [3])?
Answer: > 1000 nM
